“Also recorded” adds a separate entry of the source. Where two headings read alike, the source gives them in different places.
Key:
[1] = humans; cited from earlier work
[2] = cited from earlier work; for Human PK T 1/2 / Tmax: parent drug
[3] = IR administration; memantine 10 mg bid, duloxetine 60 mg qd; cited from earlier work
[4] = test system: depression model (forced swim test (FST)); experiment: Dose ranging study in depression model (forced swim test); type: in vivo
Excerpt: An isobolic experiment ensues where the drugs are combined in fractions of their EDXXs to add up to ED100 (i.e., ED50:ED50, ED25:ED75, etc.). The plot of the data is constructed. The experiment points that lie below the straight line between the ED50 points on the graph are indicative of synergy, points on the line are indicative of additive effects, and points above the line are indicative of inhibitory effects. The point of maximum deviation from the isobolic line is the optimal ratio. […] Similar protocols may be applied in a wide variety of validated animal models.

Row | Structure (SMILES) | Main Dose Dependent Adverse Event [1] | Human PK T 1/2 ([2]; humans) [h] | Tmax ([2]; humans) [h] | Tmax [3] [h] | T½ [3] [h] | Human PK T 1/2 (hrs) for ODV ([2]; humans, ODV) [h] | Tmax (hrs) for ODV ([2]; humans, ODV) [h] | ED50 [4] | Dose Dependent Tox [1] | T½ ([2]; head of release table, Example 3)
1 | O=C1CC2(CCCC2)CC(=O)N1CCCCN1CCN(c2ncccn2)CC1 [BUSPAR/Buspirone, buspirone] | Drowsiness, dizziness | 7 | 1 |  |  |  |  |  |  | 
2 | CNCC[C@H](Oc1cccc2ccccc12)c1cccs1 [CYMBALTA/Duloxetine, duloxetine] | Dizziness | 12 | 6 | 6 | 12 |  |  |  |  | 
3 | COc1ccc(C(CN(C)C)C2(O)CCCCC2)cc1 (stereo not shown) [EFFEXOR/Venlafaxine, venlafaxine] | nausea, constipation,; also recorded: anorexia, vomiting,; also recorded: somnolence, | 5 | 2 |  |  | 11 | 3 |  |  | 
4 | CN(C)CCC[C@@]1(c2ccc(F)cc2)OCc2cc(C#N)ccc21 [LEXAPRO/Escitalopram, escitalopram] | Sexual dys |  | 5 |  |  |  |  |  |  | 
5 | CC12CC3CC(C)(C1)CC(N)(C3)C2 [Memantine, 1-amino-3,5-dimethyladamantane] |  |  |  | 3 |  |  |  | approximately 15 μM | required, hallucination | 
6 | CNCCCN1c2ccccc2CCc2ccccc21 [NORPRAMIN/Desipramine, desipramine] | Hypotension, urinary; also recorded: retention, QTC | 22 | 3 to 6 |  |  |  |  |  |  | 
7 | Fc1ccc([C@@H]2CCNC[C@H]2COc2ccc3c(c2)OCO3)cc1 [PAXIL/Paroxetine, paroxetine] | Sexual dys | 21 | 5 |  |  |  |  |  |  | T½ = 21 hrs
8 | CC(NC(C)(C)C)C(=O)c1cccc(Cl)c1 (stereo not shown) [WELLBUTRIN/Bupropion, bupropion] | Anorexia, constipation,; also recorded: seizures (Bold Warning) | 14 | 2 |  |  |  |  |  |  | 

— patent publication US20100292216A1, “Methods and Compositions for the Treatment of Psychiatric Conditions” (ADAMAS PHARMACEUTICALS, INC., priority 2004, published 2010)
